The source of these data is US20230398237A1 (priority 2020, published 2023).

Some results are limits rather than exact numbers.

The test system of data set [1] is organic anion transporter. Nature of the data set: Probenecid inhibition studies (renal clearance efficiency). It counts as in vivo, BALB/c mice. As to conditions: 200 mg/kg probenecid i.p., urine at 30 min p.i. How it is done:
BALB/c mice were pre-treated by intraperitoneal injection of 200 mg/kg probenecid and control group were treated by PBS. […] The mice were anesthetized under 3% isoflurane for 30 min under steady breath rate of 7-8 times per 15 sec. After 30 min, the urine was collected from bladder and quantified by fluorescence.

Data set [2] has as its system serum proteins (fetal bovine serum). Nature of the data set: Serum protein binding test by agarose gel electrophoresis. Type of data set: in vitro ADME. The settings on record: 10% FBS, 37° C., 30 min. How it is done:
Coomassie brilliant blue 250 (CBB) was used to stain FBS. Color pictures of CBB-stained protein were inserted.
All these samples were analyzed using 2% agarose gel electrophoresis. […] The fluorescence images were taken by Carestream In-vivo FX Pro imaging system under 790 nm/830 nm. Non-invasive fluorescence imaging of body with ICG-PEG conjugates and ex vivo images

The nature of data set [3]: Clearance efficiencies in urine and feces. The settings on record: within 24 h post intravenous injection.
Text: Then, the urine and feces were quantified based on fluorescence and each standard curve of conjugates were built in control urine and control feces.
For data set [4] the following is noted: before elimination through the liver; cited from earlier work.

Regarding FITC-inulin, the “effect of probenecid on renal clearance efficiency” value in data set [1] is “no significant difference”.
For `CC1(C)C(/C=C/C=C/C=C/C=C2\N(CCCCS(=O)(=O)O)c3ccc4ccccc4c3C2(C)C)=[N+](CCCCS(=O)(=O)[O-])c2ccc3ccccc3c21` [ICG, Indocyanine green], the serum protein binding result in data set [2] is reported as “completely binds protein”. The “clearance percentage in feces” value in data set [3] was 85.3 % ID. Moreover, the “time retained in normal renal parenchyma” value in data set [4] is below 15 min.
